ChEMBL document CHEMBL1144564, “Discovery of Helicobacter pylori shikimate kinase inhibitors: bioassay and molecular modeling” (Bioorg Med Chem, 2007)

Assays:
Shikimate kinase [1] = target: T1, Shikimate kinase (Helicobacter pylori (strain ATCC 700392 / 26695) (Campylobacterpylori), UniProt P56073); test: Inhibition of Helicobacter pylori SS1 recombinant shikimate kinase expressed in BL21 (DE3) cells by double coupled assay; assay type: cell-based
Shikimate kinase [2] = target: T1, Shikimate kinase; test: Inhibition of Helicobacter pylori SS1 recombinant shikimate kinase expressed in BL21 (DE3) cells in presence of varying shikimate levels by double coupled assay; assay type: cell-based
Shikimate kinase [3] = target: T1, Shikimate kinase; test: Inhibition of Helicobacter pylori SS1 recombinant shikimate kinase expressed in BL21 (DE3) cells in presence of varying MgATP levels by double coupled assay; assay type: cell-based
Shikimate kinase [4] = target: T1, Shikimate kinase; test: Binding affinity to Helicobacter pylori SS1 recombinant shikimate kinase expressed in BL21 (DE3) cells by SPR assay

T1 sequence (P56073 whole entry): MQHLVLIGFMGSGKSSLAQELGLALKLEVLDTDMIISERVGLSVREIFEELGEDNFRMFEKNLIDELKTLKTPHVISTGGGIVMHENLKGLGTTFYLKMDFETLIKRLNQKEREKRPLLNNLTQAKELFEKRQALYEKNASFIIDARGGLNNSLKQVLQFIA

Compound | IC50 (Shikimate kinase [1]) [µM] | Ki (Shikimate kinase [1]) [µM] | Ki (Shikimate kinase [2]) [µM] | Ki (Shikimate kinase [3]) [µM] | Kd (Shikimate kinase [4]) [µM]
COc1cc(C=O)ccc1OCc1ccccc1COc1ccc(/C=C2/SC(=S)NC2=O)cc1OC | 5.5 | 9.48 | 10.7 | 7.18 | 4.39
O=C1NN(c2ccc(Cl)c(Cl)c2)C(=O)/C1=C\c1ccc(-c2ccc(Br)cc2C(=O)O)o1 | 6.4 | 2.19 |  | 7.92 | 3.74
